Laboratory results: patent US20120128593A1, “USE OF A MAGNETIC RESONANCE IMAGING MEDIUM COMPRISING HYPERPOLARIZED 13C PYRUVATE FOR THE DETECTION OF INFLAMMATION OR INFECTION” (priority 2010, published 2012)

Assay: T1 relaxation in human full blood
Type: physicochemical
Settings: human full blood at 37° C.

T1 relaxation: about 42 s
Compound: CC(=O)C(=O)O [[1-^13C]pyruvate, ^13C1-pyruvate]
